Reference: patent publication US8729089B2 (Gilead Sciences, Inc., priority 2006, dated 2014)

Columns and labels:
[1] = system: HCV replicon in human hepatoma Huh-7 cell line; test: Anti-HCV replicon assay (EC50, luciferase); format: cell-based; conditions: Hepatitis C virus, Huh-7, 72 h
Outline: (§1)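 Cytotoxicity (CC50) measured by CellTiter-Glo and antiviral activity (EC50) by luciferase signal from lysed cells, both by luminescence. Replicon-bearing Huh-7 cells, 6000 per well, incubated 3 days at 37 °C with threefold-diluted compound (0.5% DMSO for DMSO-dissolved compounds).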

[2] = CC50 assay (CellTiter-Glo) in Huh-7 HCV replicon cells; format: cell-based, human; conditions: human, 3 days incubation, CellTiter-Glo readout
Outline: as §1

SMILES | EC50 [1] | CC50 at 3 days [2]
CCOc1nc(NCc2ccc(C(N)=O)cc2)nc2ccc(-c3ccc(F)cc3)nc12 [Example 268, 4-{[4-Ethoxy-6-(4-fluoro-phenyl)-pyrido[3,2-d]pyrimidin-2-ylamino]-methyl}-benzamide] | < 0.1 µM | 5 to 25 µM
CCOc1nc(NCc2ccc(CS(=O)(=O)NC)cc2)nc2ccc(-c3ccc(F)cc3)nc12 [Example 269, C-(4-{[4-Ethoxy-6-(4-fluoro-phenyl)-pyrido[3,2-d]pyrimidin-2-ylamino]-methyl}-phenyl)-N-methyl-methanesulfonamide] | < 0.1 µM | 5 to 25 µM
CCOc1nc(NCc2ccc(CS(N)(=O)=O)cc2)nc2ccc(-c3ccc(F)cc3)nc12 [Example 270] | < 0.1 µM | 5 to 25 µM
CCOc1nc(NCc2ccc(NS(C)(=O)=O)cc2)nc2ccc(-c3ccc(F)cc3)nc12 [Example 271, N-(4-{[4-Ethoxy-6-(4-fluoro-phenyl)-pyrido[3,2-d]pyrimidin-2-ylamino]-methyl}-phenyl)-methanesulfonamide] | < 0.1 µM | 5 to 25 µM
NC(=O)c1ccc(-c2ccc3nc(NCc4ccc(F)cc4)nc(NCC(F)(F)F)c3n2)cc1 [Example 272, 4-[2-(4-Fluoro-benzylamino)-4-(2,2,2-trifluoro-ethylamino)-pyrido[3,2-d]pyrimidin-6-yl]-benzamide] | < 0.1 µM | < 5 µM
CN(CCS(C)(=O)=O)c1nc(NCc2ccc(F)cc2)nc2ccc(-c3ccc(C(N)=O)cc3)nc12 [Example 273, 4-{2-(4-Fluoro-benzylamino)-4-[(2-methanesulfonyl-ethyl)-methyl-amino]-pyrido[3,2-d]pyrimidin-6-yl}-benzamide] | < 0.1 µM | 5 to 25 µM
CS(=O)(=O)CCNc1nc(NCc2ccc(F)cc2)nc2ccc(-c3ccc(C(N)=O)cc3)nc12 [Example 274, 4-[2-(4-Fluoro-benzylamino)-4-(2-methanesulfonyl-ethylamino)-pyrido[3,2-d]pyrimidin-6-yl]-benzamide] | < 0.1 µM | < 5 µM
O=C1C(O)CCN1c1ccc(-c2ccc3nc(NCc4ccc(F)cc4)nc(NCC(F)(F)F)c3n2)cc1 (stereo not shown) [Example 275, 1-{4-[2-(4-Fluoro-benzylamino)-4-(2,2,2-trifluoro-ethylamino)-pyrido[3,2-d]pyrimidin-6-yl]-phenyl}-3-hydroxy-pyrrolidin-2-one] | < 0.1 µM | < 5 µM
CS(=O)(=O)N(CCO)c1cccc(-c2ccc3nc(NCc4ccc(F)cc4)nc(NCC(F)(F)F)c3n2)c1 [Example 276, N-{3-[2-(4-Fluoro-benzylamino)-4-(2,2,2-trifluoro-ethylamino)-pyrido[3,2-d]pyrimidin-6-yl]-phenyl}-N-(2-hydroxy-ethyl)-methanesulfonamide] | < 0.1 µM | 5 to 25 µM
CC(C)(N)C(=O)Nc1ccc(-c2ccc3nc(NCc4ccc(F)cc4)nc(NCC(F)(F)F)c3n2)cc1 [Example 277, 2-Amino-N-{4-[2-(4-fluoro-benzylamino)-4-(2,2,2-trifluoro-ethylamino)-pyrido[3,2-d]pyrimidin-6-yl]-phenyl}-2-methyl-propionamide] | < 0.1 µM | < 5 µM
O=C(Nc1ccc(-c2ccc3nc(NCc4ccc(F)cc4)nc(NCC(F)(F)F)c3n2)cc1)C1(O)CC1 [Example 278, 1-Hydroxy-cyclopropanecarboxylic acid {4-[2-(4-fluoro-benzylamino)-4-(2,2,2-trifluoro-ethylamino)-pyrido[3,2-d]pyrimidin-6-yl]-phenyl}-amide] | < 0.1 µM | 5 to 25 µM
CN(CCS(C)(=O)=O)c1nc(NCc2ccc(F)cc2)nc2ccc(-c3cccc(N(CCO)S(C)(=O)=O)c3)nc12 [Example 279, N-(3-{2-(4-Fluoro-benzylamino)-4-[(2-methanesulfonyl-ethyl)-methyl-amino]-pyrido[3,2-d]pyrimidin-6-yl}-phenyl)-N-(2-hydroxy-ethyl)-methanesulfonamide] | < 0.1 µM | 5 to 25 µM
CN(CCS(C)(=O)=O)c1nc(NCc2ccc(F)cc2)nc2ccc(-c3ccc(NC(=O)C(C)(C)N)cc3)nc12 [Example 280, 2-Amino-N-(4-{2-(4-fluoro-benzylamino)-4-[(2-methanesulfonyl-ethyl)-methyl-amino]-pyrido[3,2-d]pyrimidin-6-yl}-phenyl)-2-methyl-propionamide] | < 0.1 µM | 5 to 25 µM
CN(CCS(C)(=O)=O)c1nc(NCc2ccc(F)cc2)nc2ccc(-c3ccc(NC(=O)C4(O)CC4)cc3)nc12 [Example 281, 1-Hydroxy-cyclopropanecarboxylic acid (4-{2-(4-fluoro-benzylamino)-4-[(2-methanesulfonyl-ethyl)-methyl-amino]-pyrido[3,2-d]pyrimidin-6-yl}-phenyl)-amide] | < 0.1 µM | 5 to 25 µM
CS(=O)(=O)CCNc1nc(NCc2ccc(F)cc2)nc2ccc(-c3cnc(N)s3)nc12 [Example 282, 6-(2-Amino-thiazol-5-yl)-N2-(4-fluoro-benzyl)-N4-(2-methanesulfonyl-ethyl)-pyrido[3,2-d]pyrimidine-2,4-diamine] | < 0.1 µM | > 25 µM
N#CC1(NC(=O)c2ccc(-c3ccc4nc(NCc5ccc(F)cc5)nc(O[C@H]5CCOC5)c4n3)cc2)CC1 [Example 283, N-(1-Cyano-cyclopropyl)-4-[2-(4-fluoro-benzylamino)-4-(tetrahydro-furan-3-yloxy)-pyrido[3,2-d]pyrimidin-6-yl]-benzamide] | < 0.1 µM | < 5 µM
CC(C)Nc1cnn(-c2ccc3nc(NCc4ccc(S(N)(=O)=O)cc4)nc(NCC(F)(F)F)c3n2)c1 [Example 284, 4-{[6-(4-Isopropylamino-pyrazol-1-yl)-4-(2,2,2-trifluoro-ethylamino)-pyrido[3,2-d]pyrimidin-2-ylamino]-methyl}-benzenesulfonamide] | < 0.1 µM | > 25 µM
NS(=O)(=O)c1ccc(CNc2nc(NCC(F)(F)F)c3nc(-n4cncn4)ccc3n2)cc1 [Example 285, 4-{[6-[1,2,4]Triazol-1-yl-4-(2,2,2-trifluoro-ethylamino)-pyrido[3,2-d]pyrimidin-2-ylamino]-methyl}-benzenesulfonamide] | < 0.1 µM | > 25 µM
NS(=O)(=O)c1ccc(CNc2nc(NCC(F)(F)F)c3nc(-n4ccnc4)ccc3n2)cc1 [Example 286, 4-{[6-Imidazol-1-yl-4-(2,2,2-trifluoro-ethylamino)-pyrido[3,2-d]pyrimidin-2-ylamino]-methyl}-benzenesulfonamide] | < 0.1 µM | 5 to 25 µM
NS(=O)(=O)c1ccc(CNc2nc(NCC(F)(F)F)c3nc(-c4ccc(=O)[nH]c4)ccc3n2)cc1 [Example 287, 4-{[6-(6-Oxo-1,6-dihydro-pyridin-3-yl)-4-(2,2,2-trifluoro-ethylamino)-pyrido[3,2-d]pyrimidin-2-ylamino]-methyl}-benzenesulfonamide] | < 0.1 µM | > 25 µM
NS(=O)(=O)c1ccc(CNc2nc(NCC(F)(F)F)c3nc(-c4cc[nH]c(=O)c4)ccc3n2)cc1 [Example 288, 4-{[6-(2-Oxo-1,2-dihydro-pyridin-4-yl)-4-(2,2,2-trifluoro-ethylamino)-pyrido[3,2-d]pyrimidin-2-ylamino]-methyl}-benzenesulfonamide] | < 0.1 µM | > 25 µM
NS(=O)(=O)c1ccc(CNc2nc(C3CC3)c3nc(-c4ccc(F)c(S(N)(=O)=O)c4)ccc3n2)cc1 [Example 289, 5-[4-Cyclopropyl-2-(4-sulfamoyl-benzylamino)-pyrido[3,2-d]pyrimidin-6-yl]-2-fluoro-benzenesulfonamide] | < 0.1 µM | 5 to 25 µM
NC(=O)Nc1ccc(-c2ccc3nc(NCc4ccc(S(N)(=O)=O)cc4)nc(C4CC4)c3n2)cc1 [Example 290, 4-{[4-Cyclopropyl-6-(4-ureido-phenyl)-pyrido[3,2-d]pyrimidin-2-ylamino]-methyl}-benzenesulfonamide] | < 0.1 µM | 5 to 25 µM
NS(=O)(=O)c1ccc(CNc2nc(C3CC3)c3nc(-c4cccc(S(N)(=O)=O)c4)ccc3n2)cc1 [Example 291, 4-{[4-Cyclopropyl-6-(3-(aminosulfonyl)-phenyl)-pyrido[3,2-d]pyrimidin-2-ylamino]-methyl}-benzenesulfonamide] | < 0.1 µM | < 5 µM
NC(=O)c1ccc(-c2ccc3nc(NCc4ccc(S(N)(=O)=O)cc4)nc(C4CC4)c3n2)cc1 [Example 292, 4-[4-Cyclopropyl-2-(4-sulfamoyl-benzylamino)-pyrido[3,2-d]pyrimidin-6-yl]-benzamide] | < 0.1 µM | 5 to 25 µM
NS(=O)(=O)c1ccc(CNc2nc(C3CC3)c3nc(-c4ccc(C(=O)NC5CC5)cc4)ccc3n2)cc1 [Example 293, N-Cyclopropyl-4-[4-cyclopropyl-2-(4-sulfamoyl-benzylamino)-pyrido[3,2-d]pyrimidin-6-yl]-benzamide] | < 0.1 µM | < 5 µM
NS(=O)(=O)c1ccc(CNc2nc(C3CC3)c3nc(-c4ccc(F)cc4)ccc3n2)cc1 [Example 294, 4-{[4-Cyclopropyl-6-(4-fluoro-phenyl)-pyrido[3,2-d]pyrimidin-2-ylamino]-methyl}-benzenesulfonamide] | < 0.1 µM | < 5 µM
CCCc1nc(NCc2ccc(F)cc2)nc2ccc(-c3ccc(NC(=O)C(C)(C)N)cc3)nc12 [Example 295, 2-Amino-N-{4-[2-(4-fluoro-benzylamino)-4-propyl-pyrido[3,2-d]pyrimidin-6-yl]-phenyl}-2-methyl-propionamide] | < 0.1 µM | > 25 µM
NS(=O)(=O)c1ccc(CNc2nc(NC3CC3)c3nc(-c4ccc(F)cc4)ccc3n2)cc1 [Example 296, 4-{[4-Cyclopropylamino-6-(4-fluoro-phenyl)-pyrido[3,2-d]pyrimidin-2-ylamino]-methyl}-benzenesulfonamide] | < 0.1 µM | > 25 µM
